Activity calls are given as the source filed them. The calls are words filed in the database; no cut-off is given here.
Columns and labels:
[1] = Half-life in rhesus monkeys by intravenous administration of dose; format: ADME, organism-based; conditions: cercopithecidae, in vivo
[2] = target: Beta-1 adrenergic receptor (Cavia porcellus) (UniProt B0FL73); assay: Compound was tested for it's binding affinity towards guinea pig heart Beta-1 adrenergic receptor at a concentration of 10 uM; NA means no affinity.
[3] = target: Beta-2 adrenergic receptor (Cavia porcellus) (UniProt Q8K4Z4); assay: Compound was tested for it's binding affinity towards guinea pig lung Beta-2 adrenergic receptor at a concentration of 10 uM; NA means no affinity.
Cavia porcellus [4] = assay: Compound was tested for it's ability to inhibit PAF-induced bronchoconstriction in female guinea pigs after intravenous dosing; format: functional
Cavia porcellus [5] = assay: Compound was tested for it's ability to inhibit PAF-induced bronchoconstriction in male guinea pigs after intravenous dosing; format: functional
Rattus norvegicus [6] = assay: In vivo efficacy for inhibition of PAF-induced (10 nM/kg) extravasation in male and female rats in a dose-dependent manner; format: functional
Rattus norvegicus [7] = assay: In vivo efficacy for increased plasma N-acetyl-beta-D-glucosaminidase (NAGA) activity in male and female rats in a dose-dependent manner; format: functional
[8] = target: T1, Alpha-1A adrenergic receptor (Bos taurus) (UniProt P18130); assay: Compound was tested for it's binding affinity towards calf brain alpha 1 receptor at a concentration of 10 uM; NA means no affinity.
T1 sequence (whole entry): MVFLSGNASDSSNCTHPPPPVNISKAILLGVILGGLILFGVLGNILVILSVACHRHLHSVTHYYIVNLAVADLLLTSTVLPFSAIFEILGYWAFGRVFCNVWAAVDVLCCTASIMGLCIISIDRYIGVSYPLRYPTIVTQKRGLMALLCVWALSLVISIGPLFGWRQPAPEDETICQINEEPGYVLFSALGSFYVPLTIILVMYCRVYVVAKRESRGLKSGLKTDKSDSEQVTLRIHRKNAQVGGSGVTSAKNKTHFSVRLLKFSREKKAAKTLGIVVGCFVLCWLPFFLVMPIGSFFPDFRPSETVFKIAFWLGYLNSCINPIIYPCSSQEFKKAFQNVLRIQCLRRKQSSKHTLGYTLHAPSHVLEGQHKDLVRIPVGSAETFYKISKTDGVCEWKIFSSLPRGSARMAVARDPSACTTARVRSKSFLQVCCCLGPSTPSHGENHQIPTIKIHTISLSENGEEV

[9] = target: T2, Alpha-2A adrenergic receptor (Bos taurus) (UniProt Q28838); assay: Compound was tested for it's binding affinity towards calf brain alpha 2 receptor at a concentration of 10 uM; NA means no affinity.
T2 sequence (whole entry): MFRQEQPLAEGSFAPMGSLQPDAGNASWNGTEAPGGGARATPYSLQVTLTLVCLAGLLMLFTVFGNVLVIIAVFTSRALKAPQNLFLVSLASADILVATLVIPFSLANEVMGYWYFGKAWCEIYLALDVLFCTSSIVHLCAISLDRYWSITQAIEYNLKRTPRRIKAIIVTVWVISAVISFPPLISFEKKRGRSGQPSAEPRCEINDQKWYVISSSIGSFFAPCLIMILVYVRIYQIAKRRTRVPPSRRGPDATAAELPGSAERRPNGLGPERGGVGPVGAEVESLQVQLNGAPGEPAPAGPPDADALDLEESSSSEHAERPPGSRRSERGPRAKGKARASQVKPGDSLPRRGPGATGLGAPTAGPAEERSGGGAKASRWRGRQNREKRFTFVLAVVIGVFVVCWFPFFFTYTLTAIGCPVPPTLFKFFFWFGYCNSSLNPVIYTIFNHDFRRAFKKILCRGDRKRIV

Homo sapiens [10] = organism: Homo sapiens; assay: Compound was tested for human platelet aggregation induced by ADP at concentrations from 1 to 10 uM; NE means no effect; format: functional, organism-based
Homo sapiens [11] = organism: Homo sapiens; assay: Compound was tested for human platelet aggregation induced by thromboxane A2 agonist U-44,069 at concentrations from 1 to 10 uM; NE means no effect; format: functional, organism-based
Homo sapiens [12] = organism: Homo sapiens; assay: Compound was tested for human platelet aggregation induced by vasopressin at concentrations from 1 to 10 uM; NE means no effect; format: functional, organism-based
Homo sapiens [13] = organism: Homo sapiens; assay: Compound was tested for PAF-induced human platelet aggregation in plasma-rich platelets.; format: functional, organism-based
Homo sapiens [14] = organism: Homo sapiens; assay: Compound was tested for PAF-induced human platelet aggregation in washed platelets.; format: functional, organism-based
Homo sapiens [15] = organism: Homo sapiens; assay: The compound was tested for PAF-induced degranulation in preincubated isolated human neutrophils; format: functional
[16] = target: C5a anaphylatoxin chemotactic receptor 1 (Homo sapiens) (UniProt P21730); conditions: 1 to 10 uM
[17] = target: Leukotriene B4 receptor 1 (Homo sapiens) (UniProt Q15722); conditions: 1 to 10 uM
Chain of Leukotriene B4 receptor 1 (Homo sapiens) (Q15722 whole entry, looked up): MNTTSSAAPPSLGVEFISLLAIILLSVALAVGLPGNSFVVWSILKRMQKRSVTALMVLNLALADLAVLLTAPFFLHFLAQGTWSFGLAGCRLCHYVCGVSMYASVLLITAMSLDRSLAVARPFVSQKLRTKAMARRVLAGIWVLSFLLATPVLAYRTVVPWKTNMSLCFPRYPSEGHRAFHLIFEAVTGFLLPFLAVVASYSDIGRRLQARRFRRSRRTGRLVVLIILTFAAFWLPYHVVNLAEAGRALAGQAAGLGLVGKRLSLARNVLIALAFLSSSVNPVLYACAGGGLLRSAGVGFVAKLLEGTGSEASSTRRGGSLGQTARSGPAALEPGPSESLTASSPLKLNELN

Chain of Beta-2 adrenergic receptor (Cavia porcellus) (Q8K4Z4 whole entry, looked up): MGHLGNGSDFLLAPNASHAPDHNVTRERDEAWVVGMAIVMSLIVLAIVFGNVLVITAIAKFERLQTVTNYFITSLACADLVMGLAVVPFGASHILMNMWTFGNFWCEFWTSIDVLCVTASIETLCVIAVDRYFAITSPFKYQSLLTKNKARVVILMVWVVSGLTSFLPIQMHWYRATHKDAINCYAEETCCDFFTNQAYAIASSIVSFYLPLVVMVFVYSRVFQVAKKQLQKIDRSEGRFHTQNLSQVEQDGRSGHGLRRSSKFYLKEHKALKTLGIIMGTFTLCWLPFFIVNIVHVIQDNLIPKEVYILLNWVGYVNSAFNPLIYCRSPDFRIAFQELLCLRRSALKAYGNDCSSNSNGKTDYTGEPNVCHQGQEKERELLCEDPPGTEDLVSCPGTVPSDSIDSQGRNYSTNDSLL
Chain of Beta-1 adrenergic receptor (Cavia porcellus) (B0FL73 1-467): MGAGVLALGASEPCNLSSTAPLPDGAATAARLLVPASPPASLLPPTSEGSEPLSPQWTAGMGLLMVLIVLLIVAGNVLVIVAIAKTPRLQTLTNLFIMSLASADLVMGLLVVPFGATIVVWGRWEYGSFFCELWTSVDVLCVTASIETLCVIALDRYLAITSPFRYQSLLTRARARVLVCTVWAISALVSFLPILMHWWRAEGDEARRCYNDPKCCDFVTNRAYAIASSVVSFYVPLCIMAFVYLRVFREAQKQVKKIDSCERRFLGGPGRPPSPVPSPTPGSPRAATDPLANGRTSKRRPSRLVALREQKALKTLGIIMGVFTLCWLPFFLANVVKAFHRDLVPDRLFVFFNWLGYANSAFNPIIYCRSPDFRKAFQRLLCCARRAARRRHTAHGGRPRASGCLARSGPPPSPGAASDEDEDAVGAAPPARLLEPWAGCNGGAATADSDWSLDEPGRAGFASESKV
Chain of C5a anaphylatoxin chemotactic receptor 1 (Homo sapiens) (P21730 whole entry, looked up): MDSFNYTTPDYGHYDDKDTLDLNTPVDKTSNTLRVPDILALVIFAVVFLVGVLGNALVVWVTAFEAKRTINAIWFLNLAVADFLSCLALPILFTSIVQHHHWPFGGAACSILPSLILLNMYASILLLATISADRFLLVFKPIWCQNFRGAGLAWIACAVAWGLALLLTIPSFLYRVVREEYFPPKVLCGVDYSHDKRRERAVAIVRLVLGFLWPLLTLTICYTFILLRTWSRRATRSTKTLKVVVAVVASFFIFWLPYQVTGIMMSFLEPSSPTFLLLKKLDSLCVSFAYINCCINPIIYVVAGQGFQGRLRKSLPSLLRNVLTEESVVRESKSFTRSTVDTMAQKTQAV

half-life [1] | Affinity [2] | Affinity [3] | Affinity [8] | Affinity [9] | IC50 (Homo sapiens [13]) | IC50 (Homo sapiens [14]) | IC50 (Homo sapiens [15]) | inhibition [17] | SMILES | ED50 (Cavia porcellus [4]) | ED50 (Cavia porcellus [5]) | ED50 (Rattus norvegicus [6]) | ED50 (Rattus norvegicus [7]) | Activity (Homo sapiens [10]) | Activity (Homo sapiens [11]) | Activity (Homo sapiens [12]) | inhibition [16]
14 min |  |  |  |  |  |  |  |  | COc1cc([C@H]2CC[C@H](c3cc(OC)c(OC)c(OC)c3)O2)cc(OC)c1OC |  |  |  |  |  |  |  | 
 | inactive | inactive | inactive | inactive | 56 nM | 1.5 nM | 4 nM | inactive | CCCOc1c(OC)cc([C@@H]2CC[C@@H](c3cc(OC)c(OC)c(OC)c3)O2)cc1S(=O)(=O)CCO | 0.1 mg/kg | 0.19 mg/kg | 2.3 mg/kg | 0.1 mg/kg | inactive | inactive | inactive | inactive
